According to patent publication US20210346326A1, “COMPOSITIONS AND METHODS FOR ALTERING NEUTROPHIL MIGRATION AND METASTASIS” (The Wistar Institute of Anatomy and Biology, priority 2018, published 2021):
Read-outs that look alike come from different tables or passages of the source.

Tests used:
PM-LC = assay: Transwell assay of spontaneous migration of PM-LC; format: cell-based, mouse; conditions: for spontaneous migration of PM-LC: PM-LC from one-week LL2 TB mice, agent 10 min prior to plating, 1 hour
Source text: FIG. 7A-FIG. 7H. PM-LC spontaneous migration is dependent upon pannexin-1 hemichannels, extracellular ATP, and P2X and P2Y receptors. (FIG. 7A) Transwell assays evaluating the ability of PM-LC from one-week LL2 mice (left) (n=3) and RET mice (right) (n=5) to spontaneously migrate upon pannexin-1 hemichannel inhibition (panx). (FIG. 7B) Transwell assays evaluating the ability of neutrophils from control mice (n=8) and PM-LC from one-week LL2 mice (n=10) to spontaneously migrate upon apyrase treatment. (FIG. 7C-FIG. 7F) Transwell assays evaluating the ability of neutrophils from control mice (n=6) and PM-LC from one-week LL2 mice (n=7) to spontaneously migrate upon pan P2R inhibitor, P2XR, P2X1, P2Y, and A3R inhibition with suramin, NF449, MRS2179, AR-C118925XX, and MRS 1191, respectively. In addition, the ability of PM-LC from RET melanoma mice (n=3) to spontaneously migrate was also evaluated in the presence of P2Y inhibitors MRS2179 and AR-C118925XX. Individual values and mean and SD are shown. (FIG. 7G) Migration of BM neutrophils from control mice (n=3) and PMN-MDSC from 3-week LL2 mice (n=3) in response to stimulation with different concentrations of ADP. Mean and SD are shown. P values are calculated in two-sided Student's t-test. *−p<0.05; **−p<0.01; ***−p<0.001 (FIG. 7H) pMLC2 in BM neutrophils isolated from naive mice and one-week LL2 TB mice. Experiments were performed three times with similar results.
Unstimulated migration and chemotaxis was measured using a 3 μm pore transwell system (Neuro Probe Inc. or Sigma-Aldrich). Advanced RPMI with CXCL1 (BioLegend) or fMLP (Sigma-Aldrich) was placed in the bottom of the transwell, as indicated. 0.1×10^6 or 0.5×10^6 cells were incubated with pannexin inhibitor (^10Panx; Tocris), scrambled ^10Panx (Tocris), pan-P2XR inhibitor suramin (R&D Systems), P2X1 inhibitor NF 449 (Tocris), A3R inhibitor MRS 1191 (Santa Cruz), or apyrase (New England Biolabs) in Advanced RPMI for 10 min prior to being plated on top of the Neuro Probe system or Sigma-Aldrich system filter, respectively, and placed at 37° C., 5% CO2 for 1 hour. 10 μl media was taken from the bottom wells and counted by hemocytometer. The quantification of migrated neutrophils was done using the formula N=n×10^4×0.029 reflecting 29 µl media in the bottom well.

[1] = tested on: BM neutrophils from control mice; assay: Transwell assay of spontaneous migration of control neutrophils; format: cell-based, mouse
Source text: (§1) FIG. 7A-FIG. 7H. PM-LC spontaneous migration is dependent upon pannexin-1 hemichannels, extracellular ATP, and P2X and P2Y receptors. (FIG. 7A) Transwell assays evaluating the ability of PM-LC from one-week LL2 mice (left) (n=3) and RET mice (right) (n=5) to spontaneously migrate upon pannexin-1 hemichannel inhibition (panx). (FIG. 7B) Transwell assays evaluating the ability of neutrophils from control mice (n=8) and PM-LC from one-week LL2 mice (n=10) to spontaneously migrate upon apyrase treatment. […] In addition, the ability of PM-LC from RET melanoma mice (n=3) to spontaneously migrate was also evaluated in the presence of P2Y inhibitors MRS2179 and AR-C118925XX. […] P values are calculated in two-sided Student's t-test. *−p<0.05; **−p<0.01; ***−p<0.001 (FIG. 7H) pMLC2 in BM neutrophils isolated from naive mice and one-week LL2 TB mice. […]
(§2) Unstimulated migration and chemotaxis was measured using a 3 μm pore transwell system (Neuro Probe Inc. or Sigma-Aldrich). […] 10 μl media was taken from the bottom wells and counted by hemocytometer. The quantification of migrated neutrophils was done using the formula N=n×10^4×0.029 reflecting 29 µl media in the bottom well.

[2] = tested on: PMN-MDSC from 3-week LL2 mice; assay: Transwell assay of migration of PMN-MDSC; format: cell-based, mouse; conditions: different concentrations of ADP
Source text: as §1, §2

pMLC2 = pMLC2 Western blot in PM-LC; format: cell-based, mouse; conditions: PM-LC from one-week LL2 TB mice; treated 1 hour before Western blot
Method: FIG. 15A-FIG. 15E. Expression of F-actin and genes associated with the glycolytic pathway. (FIG. 15A) Expression of indicated genes in neutrophils from control and RET melanoma mice measured in real-time quantitative PCR (n=3). Individual results for each mouse, mean and SD are shown. (FIG. 15B) F-actin was measured using flow cytometry before and after stimulation with CXCL1 or fMLP in BM neutrophils from indicated tumor models. Typical example of 4 experiments is shown. (FIG. 15C) F-actin in unstimulated cells evaluated by flow cytometry. Individual results for each mouse, mean and SD are shown. (FIG. 15D) F-actin in neutrophils and PMN-MDSC measured by flow cytometry (n=4). Individual results for each mouse, mean and SD are shown. Significant p values in two-sided Student's t-test are shown. (FIG. 15E) pMLC2 in neutrophils from control tumor-free and one-week LLC TB mice. Neutrophils were treated with vehicle alone or with P2Y2 inhibitor (ARC) for 1 hour before Western blot analysis. Two experiments with similar results were performed.

[3] = tested on: P2 receptors such as P2X3, P2Y1, and P2Y2, P2X1; conditions: cited from earlier work
P2Y1 receptor = P2Y1 receptor (Homo sapiens, UniProt P47900); conditions: in vitro; cited from earlier work
Sequence of P2Y1 receptor (P47900 whole entry): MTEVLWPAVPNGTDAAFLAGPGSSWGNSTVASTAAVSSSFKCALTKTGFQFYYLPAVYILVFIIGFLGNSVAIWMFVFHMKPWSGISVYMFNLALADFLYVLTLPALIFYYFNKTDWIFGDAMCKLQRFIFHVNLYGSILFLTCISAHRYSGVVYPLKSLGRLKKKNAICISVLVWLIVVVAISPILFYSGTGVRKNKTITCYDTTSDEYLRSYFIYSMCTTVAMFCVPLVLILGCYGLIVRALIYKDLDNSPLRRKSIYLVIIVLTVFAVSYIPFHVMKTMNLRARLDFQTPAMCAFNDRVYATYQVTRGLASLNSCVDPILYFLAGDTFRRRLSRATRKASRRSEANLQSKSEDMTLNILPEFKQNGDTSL

[4] = rats, compared to controls; cited from earlier work
[5] = mice, compared to controls; cited from earlier work

## apyrase
PM-LC
  spontaneous migration of PM-LC: completely abrogated
[1]; neutrophils from control mice, Transwell
  spontaneous migration of control neutrophils: completely abrogated

## Nc1ncnc2c1ncn2[C@@H]1O[C@H](COP(=O)(O)OP(=O)(O)O)[C@@H](O)[C@H]1O [ADP]
[1]; BM neutrophils from control mice, different concentrations of ADP
  migration of control neutrophils on stimulation: significantly increased migration
[2]
  migration of PMN-MDSC on stimulation: significantly increased migration

## Cc1ccc2c(c1)C=Cc1cc(C)ccc1C2c1cn(Cc2ccc(C(=O)Nc3nn[nH]n3)o2)c(=O)[nH]c1=S [AR-C118925XX, 5-[[5-(2,8-Dimethyl-5H-dibenzo[a,d]cyclohepten-5-yl)-3,4-dihydro-2-oxo-4-thioxo-1(2H)-pyrimidinyl]methyl]-N-2H-tetrazol-5-yl-2-furancarboxamide]
PM-LC
  spontaneous migration of PM-LC: completely abrogated the increased spontaneous migration
pMLC2
  up-regulation of pMLC2 in PM-LC: abrogated

## O=C(Nc1cc(C(=O)Nc2ccc(S(=O)(=O)[O-])cc2S(=O)(=O)[O-])cc(C(=O)Nc2ccc(S(=O)(=O)[O-])cc2S(=O)(=O)[O-])c1)Nc1cc(C(=O)Nc2ccc(S(=O)(=O)[O-])cc2S(=O)(=O)[O-])cc(C(=O)Nc2ccc(S(=O)(=O)[O-])cc2S(=O)(=O)[O-])c1.[Na+].[Na+].[Na+].[Na+].[Na+].[Na+].[Na+].[Na+] [NF449, 4,4′,4″,4″′-[Carbonylbis(imino-5,1,3-benzenetriyl-bis(carbonylimino))]tetrakis-1,3-benzen edisulfonic acid octasodium salt]
PM-LC; PM-LC from one-week LL2 mice
  inhibition of the ability of PM-LCs to spontaneously migrate: 50%
[3]
  selectivity among P2 receptors: highest selectivity towards P2X1

## CCOC(=O)C1=C(C)NC(c2ccccc2)=C(C(=O)OCc2ccccc2)C1C#Cc1ccccc1 (centres unmarked) [MRS 1191]
PM-LC
  spontaneous migration of PM-LC: did not affect

## CNc1ncnc2c1ncn2[C@H]1C[C@H](OP(=O)(O)O)[C@@H](COP(=O)(O)O)O1.N [MRS2179, 3′-adenylic acid, 2′-deoxy-N-methyl-5′-(dihydrogen phosphate), ammonium salt]
PM-LC
  spontaneous migration of PM-LC: completely abrogated the increased spontaneous migration
P2Y1 receptor
  pA2, inhibition of ADP-induced platelet shape change and aggregation: 6.55
[4]
  bleeding time: prolongs bleeding time
[5]
  bleeding time: prolongs bleeding time

## Cc1ccc(C(=O)Nc2ccc(S(=O)(=O)O)c3cc(S(=O)(=O)O)cc(S(=O)(=O)O)c23)cc1NC(=O)c1cccc(NC(=O)Nc2cccc(C(=O)Nc3cc(C(=O)Nc4ccc(S(=O)(=O)O)c5cc(S(=O)(=O)O)cc(S(=O)(=O)O)c45)ccc3C)c2)c1 [suramin]
PM-LC
  spontaneous migration of PM-LC: completely abrogated
